Columns and labels:
human CB2 receptors = human CB2 receptors (Homo sapiens (Human), UniProt P34972); assay: functional cAMP assay, CHO cells expressing human CB2 receptors; format: cell-based
Experimental: (§1) CHO cells expressing human CB1 or CB2 receptors are seeded 17-24 hours prior to the experiment 50.000 cells per well in a black 96 well plate with flat clear bottom (Corning Costar #3904) in DMEM (Invitrogen No. 31331), 1×HT supplement, with 10% fetal calf serum and incubated at 5% CO2 and 37° C. in a humidified incubator. The growth medium was exchanged with Krebs Ringer Bicarbonate buffer with 1 mM IBMX and incubated at 30° C. for 30 min. Compounds were added to a final assay volume of 100 μl and incubated for 30 min at 30° C. Using the cAMP-Nano-TRF detection kit the assay (Roche Diagnostics) was stopped by the addition of 50 μl lysis reagent (Tris, NaCl, 1.5% Triton X100, 2.5% NP40, 10% NaN3) and 50 μl detection solutions (20 μM mAb Alexa700-cAMP 1:1, and 48 μM Ruthenium-2-AHA-cAMP) and shaken for 2 h at room temperature. The time-resolved energy transfer is measured by a TRF reader (Evotec Technologies GmbH), equipped with a ND:YAG laser as excitation source. The plate is measured twice with the excitation at 355 nm and at the emission with a delay of 100 ns and a gate of 100 ns, total exposure time 10 s at 730 (bandwidth 30 nm) or 645 nm (bandwidth 75 nm), respectively. The FRET signal is calculated as follows: FRET=T730-Alexa730-P(T645-B645) with P=Ru730-B730/Ru645-B645, where T730 is the test well measured at 730 nM, T645 is the test well measured at 645 nm, B730 and B645 are the buffer controls at 730 nm and 645 nm, respectively. cAMP content is determined from the function of a standard curve spanning from 10 μM to 0.13 nM cAMP.
(§2) EC50 values were determined using Activity Base analysis (ID Business Solution, Limited). The EC50 values for a wide range of cannabinoid agonists generated from this assay were in agreement with the values published in the scientific literature.

human CB1 receptors = human CB1 receptors (Homo sapiens (Human), UniProt P21554); assay: functional cAMP assay, CHO cells expressing human CB1 receptors; format: cell-based
Chain of human CB1 receptors (P21554 whole entry): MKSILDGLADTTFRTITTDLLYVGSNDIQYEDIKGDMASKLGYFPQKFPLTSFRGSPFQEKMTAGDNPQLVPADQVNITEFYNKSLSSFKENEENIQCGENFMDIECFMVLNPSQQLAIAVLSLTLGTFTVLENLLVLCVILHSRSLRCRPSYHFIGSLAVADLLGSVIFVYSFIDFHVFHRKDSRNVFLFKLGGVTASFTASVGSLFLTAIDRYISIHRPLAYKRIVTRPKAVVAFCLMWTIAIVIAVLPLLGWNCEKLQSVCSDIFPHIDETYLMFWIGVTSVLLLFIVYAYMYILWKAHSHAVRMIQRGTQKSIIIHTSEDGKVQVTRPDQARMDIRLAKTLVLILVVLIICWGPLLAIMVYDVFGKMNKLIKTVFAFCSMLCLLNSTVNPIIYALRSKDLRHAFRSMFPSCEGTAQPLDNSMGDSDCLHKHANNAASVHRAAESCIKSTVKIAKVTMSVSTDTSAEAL
Experimental: as §1, §2

Chain of human CB2 receptors (P34972 whole entry): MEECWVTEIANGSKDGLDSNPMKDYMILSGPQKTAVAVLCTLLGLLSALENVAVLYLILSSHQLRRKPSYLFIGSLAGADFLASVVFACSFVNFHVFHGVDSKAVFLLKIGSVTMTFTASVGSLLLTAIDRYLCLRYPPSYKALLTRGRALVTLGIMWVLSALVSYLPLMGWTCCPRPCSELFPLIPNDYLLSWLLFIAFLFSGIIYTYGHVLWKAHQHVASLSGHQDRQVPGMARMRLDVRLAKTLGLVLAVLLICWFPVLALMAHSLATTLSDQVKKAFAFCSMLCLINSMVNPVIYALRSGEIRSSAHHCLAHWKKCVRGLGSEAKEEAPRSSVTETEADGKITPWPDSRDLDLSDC

SMILES | EC50 (human CB2 receptors) | EC50 (human CB1 receptors)
CC1(C)C(=O)NCCN1C(=O)c1ccc(N2CC(F)(F)C2)c(OCC2CC2)n1 [Example 28, 4-[6-Cyclopropylmethoxy-5-(3,3-difluoro-azetidin-1-yl)-pyridine-2-carbonyl]-3,3-dimethyl-piperazin-2-one] | 0.414 µM | > 10 µM
CCC1(CC)C(=O)NCCN1C(=O)c1ccc(N2CC(F)(F)C2)c(OCC2CC2)n1 [Example 29, 4-[6-Cyclopropylmethoxy-5-(3,3-difluoro-azetidin-1-yl)-pyridine-2-carbonyl]-3,3-diethyl-piperazin-2-one] | 0.414 µM | > 10 µM
CC(C)CS(=O)(=O)c1nc(C(=O)N2CCCC2(C)C)ccc1C1CC1 [Example 30, [5-Cyclopropyl-6-(2-methyl-propane-1-sulfonyl)-pyridin-2-yl]-(2,2-dimethyl-pyrrolidin-1-yl)-methanone] | 0.0345 µM | > 10 µM
CC(C)CS(=O)(=O)c1nc(C(=O)N2COCC2(C)C)ccc1C1CC1 [Example 31, [5-Cyclopropyl-6-(2-methyl-propane-1-sulfonyl)-pyridin-2-yl]-(4,4-dimethyl-oxazolidin-3-yl)-methanone] | 0.0821 µM | > 10 µM
Cc1nc([C@H](CC2CC2)N(C)C(=O)c2ccc(N3CC(F)(F)C3)c(OCC3CC3)n2)no1 [Example 32, 6-Cyclopropylmethoxy-5-(3,3-difluoro-azetidin-1-yl)-pyridine-2-carboxylic acid [(S)-2-cyclopropyl-1-(5-methyl-[1,2,4]oxadiazol-3-yl)-ethyl]-methyl-amide] | 0.256 µM | > 10 µM
Cc1nc(C(C2CC2)N(C)C(=O)c2ccc(C3CC3)c(OCC3CCOCC3)n2)no1 (centres unmarked) [Example 33, 5-Cyclopropyl-6-(tetrahydro-pyran-4-ylmethoxy)-pyridine-2-carboxylic acid [cyclopropyl-(5-methyl-[1,2,4]oxadiazol-3-yl)-methyl]-methyl-amide] | 0.0554 µM | > 10 µM
CC(C)C[C@H](c1cccnn1)N(C)C(=O)c1ccc(N2CC(F)(F)C2)c(OCC2CC2)n1 [Example 34, (+)-6-Cyclopropylmethoxy-5-(3,3-difluoro-azetidin-1-yl)-pyridine-2-carboxylic acid methyl-(3-methyl-1-pyridazin-3-yl-butyl)-amide] | 0.0911 µM | > 10 µM
CC(C)(C)N(CC(N)=O)C(=O)c1ccc(N2CC(F)(F)C2)c(OCC2CC2)n1 [Example 35, 6-Cyclopropylmethoxy-5-(3,3-difluoro-azetidin-1-yl)-pyridine-2-carboxylic acid tert-butyl-carbamoylmethyl-amide] | 0.183 µM | > 10 µM
Cc1nnc(CN(C(=O)c2ccc(N3CC(F)(F)C3)c(OCC3CC3)n2)C(C)(C)C)o1 [Example 36, 6-Cyclopropylmethoxy-5-(3,3-difluoro-azetidin-1-yl)-pyridine-2-carboxylic acid tert-butyl-(5-methyl-[1,3,4]oxadiazol-2-ylmethyl)-amide] | 0.226 µM | > 10 µM
CC1(O)CCN(C(=O)c2ccc(N3CC(F)(F)C3)c(OCC3CC3)n2)C1 (centres unmarked) [Example 37, [6-Cyclopropylmethoxy-5-(3,3-difluoro-azetidin-1-yl)-pyridin-2-yl]-(3-hydroxy-3-methyl-pyrrolidin-1-yl)-methanone] | 0.364 µM | > 10 µM
O=C(c1ccc(N2CC(F)(F)C2)c(OCC2CC2)n1)N1CCCC12COC2 [Example 38, [6-Cyclopropylmethoxy-5-(3,3-difluoro-azetidin-1-yl)-pyridin-2-yl]-(2-oxa-5-aza-spiro[3.4]oct-5-yl)-methanone] | 0.212 µM | > 10 µM
CCN(CCOC)C(=O)c1ccc(N2CC(F)(F)C2)c(OCC2CC2)n1 [Example 39, 6-Cyclopropylmethoxy-5-(3,3-difluoro-azetidin-1-yl)-pyridine-2-carboxylic acid ethyl-(2-methoxy-ethyl)-amide] | 0.142 µM | > 10 µM
Cn1nnnc1CN(C(=O)c1ccc(N2CC(F)(F)C2)c(OCC2CC2)n1)C(C)(C)C [Example 40, 6-Cyclopropylmethoxy-5-(3,3-difluoro-azetidin-1-yl)-pyridine-2-carboxylic acid tert-butyl-(1-methyl-1H-tetrazol-5-ylmethyl)-amide] | 0.0818 µM | > 10 µM
CC(=O)NC1CCN(C(=O)c2ccc(N3CC(F)(F)C3)c(OCC3CC3)n2)C1 (centres unmarked) [Example 41, N-{1-[6-Cyclopropylmethoxy-5-(3,3-difluoro-azetidin-1-yl)-pyridine-2-carbonyl]-pyrrolidin-3-yl}-acetamide] | 0.966 µM | > 10 µM
CC1(C)CCN(C(=O)c2ccc(C3CC3)c(Cc3ccc(F)cc3)n2)CC1 [Example 42, [5-Cyclopropyl-6-(4-fluoro-benzyl)-pyridin-2-yl]-(4,4-dimethyl-piperidin-1-yl)-methanone] | 0.009 µM | > 10 µM
CC1(C)CCN(C(=O)c2ccc(C3CC3)c(OCC3CCCO3)n2)CC1 (centres unmarked) [Example 43, [5-Cyclopropyl-6-(tetrahydro-furan-2-ylmethoxy)-pyridin-2-yl]-(4,4-dimethyl-piperidin-1-yl)-methanone] | 0.0349 µM | > 10 µM
CC1(C)COCN1C(=O)c1ccc(C2CC2)c(Cc2ccc(F)cc2)n1 [Example 44, [5-Cyclopropyl-6-(4-fluoro-benzyl)-pyridin-2-yl]-(4,4-dimethyl-oxazolidin-3-yl)-methanone] | 0.0031 µM | 0.408 µM
CC1(C)C[C@@H]2C[C@@](C)(CN2C(=O)c2ccc(N3CC(F)(F)C3)c(OCC3CC3)n2)C1 [Example 45, [6-Cyclopropylmethoxy-5-(3,3-difluoro-azetidin-1-yl)-pyridin-2-yl]-((1S,5R)-1,3,3-trimethyl-6-aza-bicyclo[3.2.1]oct-6-yl)-methanone] | 0.0068 µM | > 10 µM
COC[C@H]1CCCN1C(=O)c1ccc(N2CC(F)(F)C2)c(OCC2CC2)n1 [Example 46, [6-Cyclopropylmethoxy-5-(3,3-difluoro-azetidin-1-yl)-pyridin-2-yl]-((R)-2-methoxymethyl-pyrrolidin-1-yl)-methanone] | 0.36 µM | > 10 µM
CC1(C)CCCN1C(=O)c1ccc(OCC2CC2)c(Cl)n1 [Example 47, (6-Chloro-5-cyclopropylmethoxy-pyridin-2-yl)-(2,2-dimethyl-pyrrolidin-1-yl)-methanone] | 0.113 µM | > 10 µM
CC1(C)COCN1C(=O)c1ccc(OC(F)(F)F)c(OCC2CC2)n1 [Example 48, (6-Cyclopropylmethoxy-5-trifluoromethoxy-pyridin-2-yl)-(4,4-dimethyl-oxazolidin-3-yl)-methanone] | 0.108 µM | > 10 µM
CC1(C)COCN1C(=O)c1ccc(OCC2CC2)c(Cl)n1 [Example 49, (6-Chloro-5-cyclopropylmethoxy-pyridin-2-yl)-(4,4-dimethyl-oxazolidin-3-yl)-methanone] | 0.139 µM | > 10 µM
CC(=O)N1CCC(N(C(=O)c2ccc(N3CC(F)(F)C3)c(OCC3CC3)n2)C2CC2)CC1 [Example 50, 6-Cyclopropylmethoxy-5-(3,3-difluoro-azetidin-1-yl)-pyridine-2-carboxylic acid (1-acetyl-piperidin-4-yl)-cyclopropyl-amide] | 0.237 µM | > 10 µM
CN(C=O)C(=O)c1ccc(N2CC(F)(F)C2)c(OCC2CC2)n1 [Example 51, 6-(Cyclopropylmethoxy)-5-(3,3-difluoroazetidin-1-yl)-N-formyl-N-methylpyridine-2-carboxamide] | 0.789 µM | > 10 µM
CN(C(=O)c1ccc(N2CC(F)(F)C2)c(OCC2CC2)n1)c1ccccc1 [Example 52, 6-Cyclopropylmethoxy-5-(3,3-difluoro-azetidin-1-yl)-pyridine-2-carboxylic acid methyl-phenyl-amide] | 0.645 µM | > 10 µM
O=C(c1ccc(N2CC(F)(F)C2)c(OCC2CC2)n1)N1CC(F)(F)C[C@H]1CO [Example 53, [6-Cyclopropylmethoxy-5-(3,3-difluoro-azetidin-1-yl)-pyridin-2-yl]-((S)-4,4-difluoro-2-hydroxymethyl-pyrrolidin-1-yl)-methanone] | 0.0037 µM | > 10 µM
Cc1cn(C)nc1N(C)C(=O)c1ccc(N2CC(F)(F)C2)c(OCC2CC2)n1 [Example 54, 6-Cyclopropylmethoxy-5-(3,3-difluoro-azetidin-1-yl)-pyridine-2-carboxylic acid (1,4-dimethyl-1H-pyrazol-3-yl)-methyl-amide] | 0.462 µM | > 10 µM
CC1(C)CN(C(=O)c2ccc(N3CC(F)(F)C3)c(OCC3CC3)n2)CCO1 [Example 55, [6-Cyclopropylmethoxy-5-(3,3-difluoro-azetidin-1-yl)-pyridin-2-yl]-(2,2-dimethyl-morpholin-4-yl)-methanone] | 0.0554 µM | > 10 µM

From US9303012B2, “Pyridine-2-amides useful as CB2 agonists” (Hoffmann-La Roche Inc., priority 2012, dated 2016)
